Tests used:
Assay type in all cases: cell-based
hEP4/Gqs5 = target: T1, hEP4/Gqs5 (Homo sapiens, UniProt P35408); test: FLIPR calcium signal, EP4; details: HEK-293(EBNA) cells
T1 construct: expressed in transfected cells; host or cells: HEK-293(EBNA)
Description: (§1) HEK-293(EBNA) cells, stably expressing one type or subtype of recombinant human prostaglandin receptors (prostaglandin receptors expressed: hDP/Gqs5; hEP1; hEP2/Gqs5; hEP3A/Gqi5; hEP4/Gqs5; hFP; hIP; hTP), were cultured in 100 mm culture dishes in high-glucose DMEM medium containing 10% fetal bovine serum, 2 mM l-glutamine, 250 μg/ml geneticin (G418) and 200 μg/ml hygromycin B as selection markers, and 100 units/ml penicillin G, 100 μg/ml streptomycin and 0.25 μg/ml amphotericin B.
(§2) Cells were seeded at a density of 5×10^4 cells per well in Biocoat® Poly-D-lysine-coated black-wall, clear-bottom 96-well plates (Becton-Dickinson) and allowed to attach overnight in an incubator at 37° C. Cells were then washed two times with HBSS-HEPES buffer (Hanks Balanced Salt Solution without bicarbonate and phenol red, 20 mM HEPES, pH 7.4) using a Denley Cellwash plate washer (Labsystems). After 45 minutes of dye-loading in the dark, using the calcium-sensitive dye Fluo-4 […] at a final concentration of 2 μM, plates were washed four times with HBSS-HEPES buffer to remove excess dye leaving 100 μl in each well. Plates were re-equilibrated to 37° C. for a few minutes.
(§3) Cells were excited with an Argon laser at 488 nm, and emission was measured through a 510-570 nm bandwidth emission filter (FLIPR™, Molecular Devices, Sunnyvale, Calif.). Drug solution was added in a 50 μl volume to each well to give the desired final concentration. The peak increase in fluorescence intensity was recorded for each well. On each plate, four wells each served as negative (HBSS-HEPES buffer) and positive controls (standard agonists: BW245C (hDP); PGE2 (hEP1; hEP2/Gqs5; hEP3A/Gqi5; hEP4/Gqs5); PGF2α (hFP); carbacyclin (hIP); U-46619 (hTP), depending on receptor). The peak fluorescence change in each drug-containing well was then expressed relative to the controls.
(§4) Compounds were tested in a high-throughput (HTS) or concentration-response (CoRe) format. In the HTS format, forty-four compounds per plate were examined in duplicates at a concentration of 10^−5 M. To generate concentration-response curves, four compounds per plate were tested in duplicates in a concentration range between 10^−5 and 10^−11 M. The duplicate values were averaged. In either, HTS or CoRe format each compound was tested on at least 3 separate plates using cells from different passages to give an n≧3.

hTP = target: T2, hTP (Homo sapiens, UniProt P21731); test: FLIPR calcium signal, hTP; details: read-out: Other Receptors (EC50 in nM) hTP
T2 construct: expressed in transfected cells; host or cells: HEK-293(EBNA)
T2 sequence (P21731 1-343): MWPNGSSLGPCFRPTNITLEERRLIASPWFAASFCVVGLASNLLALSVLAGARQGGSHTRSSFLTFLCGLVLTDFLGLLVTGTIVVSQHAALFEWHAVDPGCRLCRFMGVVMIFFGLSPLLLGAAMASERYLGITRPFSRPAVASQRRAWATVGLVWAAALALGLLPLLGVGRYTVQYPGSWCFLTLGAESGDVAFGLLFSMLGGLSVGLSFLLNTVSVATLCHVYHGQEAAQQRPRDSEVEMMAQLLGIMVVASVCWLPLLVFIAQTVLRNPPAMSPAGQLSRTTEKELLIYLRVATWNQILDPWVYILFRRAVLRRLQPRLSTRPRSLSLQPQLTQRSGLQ
Description: as §1, §2, §3
Compounds were tested in a high-throughput (HTS) or concentration-response (CoRe) format. […]

EP2 = EP2 (Homo sapiens, UniProt P43116); test: cAMP assay, EP2; design: expressed in transfected cells; host or cells: HEK-EBNA; details: HEK-EBNA cells expressing EP2
Description: A 384-well drug plate was prepared to contain 6 test compounds, PGE2 and cAMP in 16 serial dilutions in triplicate, using a Biomek station. HEK-EBNA cells expressing a target PG receptor subtype (EP2 or EP4) were suspended in a stimulation buffer (HBSS, 0.1% BSA, 0.5 mM IBMX and 5 mM HEPES, pH 7.4) in a density of 10^4 cells/5 μl. The reaction was initiated by mixing 5 μL drug dilutions with 5 μl of HEK-EBNA cells in a well, carried out for 30 min at room temperature, and followed by the addition of 5 μl anti-cAMP acceptor beads in the control buffer with Tween-20 (25 mM NaCl, 0.03% Tween-20, 5 mM HEPES, pH7.4). After 30 min in the dark at room temperature, the mixtures were incubated with 15 μl biotinylated-cAMP/strepavidin donor beads in Lysis/Detection buffer (0.1% BSA, 0.3% Tween-20 and 5 mM HEPES, pH7.4) for 45 min at the room temperature. Fluorescence changes were read using a Fusion-alpha HT microplate reader.

hDP/Gqs5 = target: T3, hDP/Gqs5 (Homo sapiens, UniProt Q13258); test: FLIPR calcium signal, hDP; details: read-out: Other Receptors (EC50 in nM) hDP
T3 construct: expressed in transfected cells; host or cells: HEK-293(EBNA)
T3 sequence (Q13258 1-359): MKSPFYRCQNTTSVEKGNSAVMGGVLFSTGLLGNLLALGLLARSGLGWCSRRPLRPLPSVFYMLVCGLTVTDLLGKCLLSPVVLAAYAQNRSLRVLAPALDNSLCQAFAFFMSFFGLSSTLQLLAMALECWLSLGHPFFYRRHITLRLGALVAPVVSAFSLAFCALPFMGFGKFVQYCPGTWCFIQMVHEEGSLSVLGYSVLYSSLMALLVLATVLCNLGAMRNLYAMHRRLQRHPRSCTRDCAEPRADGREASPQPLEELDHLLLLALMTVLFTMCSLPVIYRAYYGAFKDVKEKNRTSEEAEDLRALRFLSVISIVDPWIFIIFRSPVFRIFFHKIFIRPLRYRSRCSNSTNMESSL
Description: as §1, §2, §3, §4

hFP = target: T4, hFP (Homo sapiens, UniProt P43088); test: FLIPR calcium signal, hFP; details: read-out: Other Receptors (EC50 in nM) hFP
T4 construct: expressed in transfected cells; host or cells: HEK-293(EBNA)
Description: as §1
Cells were seeded at a density of 5×10^4 cells per well in Biocoat® Poly-D-lysine-coated black-wall, clear-bottom 96-well plates (Becton-Dickinson) and allowed to attach overnight in an incubator at 37° C. Cells were then washed two times with HBSS-HEPES buffer (Hanks Balanced Salt Solution without bicarbonate and phenol red, 20 mM HEPES, pH 7.4) using a Denley Cellwash plate washer (Labsystems). […]
Cells were excited with an Argon laser at 488 nm, and emission was measured through a 510-570 nm bandwidth emission filter (FLIPR™, Molecular Devices, Sunnyvale, Calif.). […] The peak increase in fluorescence intensity was recorded for each well. […] The peak fluorescence change in each drug-containing well was then expressed relative to the controls. […]

EP2, sequence (P43116 whole entry): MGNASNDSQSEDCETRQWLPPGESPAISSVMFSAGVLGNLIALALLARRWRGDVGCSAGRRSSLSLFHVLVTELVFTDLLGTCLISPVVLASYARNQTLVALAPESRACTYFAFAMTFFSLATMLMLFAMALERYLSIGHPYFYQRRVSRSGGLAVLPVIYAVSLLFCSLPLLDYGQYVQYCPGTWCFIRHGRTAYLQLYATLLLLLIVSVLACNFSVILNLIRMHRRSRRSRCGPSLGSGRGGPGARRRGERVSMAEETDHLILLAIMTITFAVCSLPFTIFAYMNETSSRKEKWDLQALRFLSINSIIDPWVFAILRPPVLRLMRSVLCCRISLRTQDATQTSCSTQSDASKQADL
T4 sequence (P43088 whole entry): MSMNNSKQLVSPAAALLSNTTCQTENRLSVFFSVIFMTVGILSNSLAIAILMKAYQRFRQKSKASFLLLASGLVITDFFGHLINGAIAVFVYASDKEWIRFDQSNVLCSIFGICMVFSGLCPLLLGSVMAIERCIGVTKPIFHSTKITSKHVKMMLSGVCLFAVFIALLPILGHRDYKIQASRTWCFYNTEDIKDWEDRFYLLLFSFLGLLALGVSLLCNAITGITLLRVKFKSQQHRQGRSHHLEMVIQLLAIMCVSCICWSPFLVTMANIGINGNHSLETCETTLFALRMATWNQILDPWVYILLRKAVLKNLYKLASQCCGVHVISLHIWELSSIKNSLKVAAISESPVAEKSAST
T1 sequence (P35408 whole entry): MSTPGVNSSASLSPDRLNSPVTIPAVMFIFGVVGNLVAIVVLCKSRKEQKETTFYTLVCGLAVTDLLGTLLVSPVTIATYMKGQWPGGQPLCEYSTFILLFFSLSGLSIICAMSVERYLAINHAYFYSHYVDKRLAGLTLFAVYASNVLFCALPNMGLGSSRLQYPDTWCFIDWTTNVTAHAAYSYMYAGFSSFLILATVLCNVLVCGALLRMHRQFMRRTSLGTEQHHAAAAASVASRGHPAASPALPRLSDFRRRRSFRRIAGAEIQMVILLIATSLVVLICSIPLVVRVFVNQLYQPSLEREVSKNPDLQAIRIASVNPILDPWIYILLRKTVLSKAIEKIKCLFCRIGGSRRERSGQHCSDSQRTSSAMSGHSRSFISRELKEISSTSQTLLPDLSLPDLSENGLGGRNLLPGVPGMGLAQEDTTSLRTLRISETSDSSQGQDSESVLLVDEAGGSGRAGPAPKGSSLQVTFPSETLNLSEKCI

Row | EC50 (hEP4/Gqs5) [µM] | EC50 (hTP) [nM] | EC50 (EP2) [nM] | EC50 (hDP/Gqs5) [nM] | EC50 (hFP) [nM] | SMILES
1 | > 10 | 64 | 0.1 | 12700 |  | O=C(O)c1ccc(CCC[C@@H]2[C@@H](CCc3cc(F)cc(F)c3)[C@H](O)C[C@H]2Cl)s1 [11d, 5-(3-((1R,2R,3R,5R)-5-chloro-2-(3,5-difluorophenethyl)-3-hydroxycyclopentyl)propyl)thiophene-2-carboxylic acid]
2 |  |  | 4 | > 10000 | > 10000 | O=C(O)c1ccc(CCC[C@@H]2[C@@H](CCc3cc(Cl)cc(Cl)c3)[C@@H](O)C[C@H]2Cl)s1 [compound 17, 5-(3-((1R,2R,3S,5R)-5-chloro-2-(3,5-dichlorophenethyl)-3-hydroxycyclopenty)propyl)thiophene-2-carboxylic acid]
